Source: ChEMBL document CHEMBL5528053, “Discovery of Novel Isoquinoline Analogues as Dual Tubulin Polymerization/V-ATPase Inhibitors with Immunogenic Cell Death Induction” (J Med Chem, 2024)
Active and inactive are the calls of the source. No cut-off for these calls is given here.

Experiments:
[1] = system: Cell membrane; assay: Induction of mitochondrial membrane potential loss in human PC-3 cells assessed as increase in green fluorescence at 50 to 200 nM incubated for 24 hrs by JC-1 staining based confocal microscopy analysis; settings: dose 50-200 nM
[2] = system: PC-3; assay: Induction of endoplasmic reticulum (ER) stress in human PC-3 cells assessed as upregulation of eIF2 alpha phosphorylation at […] residues at 50 to 200 nM measured after 24 hrs by Western blot analysis; assay type: functional, cell-based; settings: dose 50-200 nM
[3] = system: PC-3; assay: Downregulation of acetyl-alpha tubulin expression in human PC-3 cells incubated for 24 hrs by Western blot analysis; assay type: functional, cell-based; settings: dose 50-200 nM
[4] = system: PC-3; assay: Induction of apoptosis in human PC-3 cells assessed as late apoptotic cells at 50 nM measured after 24 hrs by annexin V-FITC and PI staining based flow cytometry analysis (reference value: 2.37%); assay type: functional
[5] = system: PC-3; assay: Inhibition of autophagy in human PC-3 cells assessed as increase in number of autophagosomes at 50 to 200 uM measured after 3 hrs by immunofluorescence imaging based analysis; assay type: functional, cell-based; settings: dose 50-200 µM
[6] = Toxicity in ICR mouse assessed as effect on WBC count at 10 mg/kg, ip measured for 14 days; assay type: organism-based; settings: in vivo, 336 h, time 14 day
[7] = Antitumor activity against mouse RM1 cells homografted in C57BL/6 mouse model assessed as tumor growth inhibition at 10 mg/kg, iv administered every two days for 14 days by vernier caliper based analysis relative to control; assay type: functional; settings: RM1, 336 h, time 14 day, read-out: TGI
[8] = system: A549; assay: Inhibition of cell migration in human A549 cells at upto 100 nM incubated for 24 hrs by inverted fluorescence microscope analysis; assay type: functional, cell-based
[9] = Toxicity in ICR mouse assessed as effect on lymphocytes at 10 mg/kg, ip measured for 14 days; assay type: organism-based; settings: in vivo, 336 h, time 14 day
[10] = system: PC-3; assay: Inhibition of V-ATPase activity in human PC-3 cells at 50 nM measured after 24 hrs by colorimetric assay relative to control; assay type: cell-based
[11] = system: PC-3; assay: Induction of apoptosis in human PC-3 cells assessed as late apoptotic cells at 100 nM measured after 24 hrs by annexin V-FITC and PI staining based flow cytometry analysis (reference value: 2.37%); assay type: functional
[12] = system: PC-3; assay: Induction of apoptosis in human PC-3 cells assessed as necrotic cells at 50 nM measured after 24 hrs by annexin V-FITC and PI staining based flow cytometry analysis (reference value: 6.01%); assay type: functional
[13] = system: PC-3; assay: Induction of immunogenic cell death in human PC-3 cells assessed as increase in CRT translocation to cell surface at 50 to 200 nM measured after 12 hrs by DAPI staining based analysis; assay type: functional; settings: dose 50-200 nM
[14] = system: A549; assay: Antiproliferative activity against human A549 cells assessed as inhibition of cell growth after 72 hrs by MTT assay; assay type: functional, cell-based; settings: A549, 72 h
[15] = system: PC-3; assay: Induction of apoptosis in human PC-3 cells assessed as increase in bax level at 50 to 200 nM incubated for 24 hrs by Western blot analysis; assay type: functional, cell-based; settings: dose 50-200 nM
[16] = system: PC-3; assay: Inhibition of V-ATPase activity in human PC-3 cells at 800 nM measured after 24 hrs by colorimetric assay relative to control; assay type: cell-based
[17] = Binding affinity to porcine brain tubulin polymerization assessed as dissociation constant measured after 20 mins by fluorescence based analysis; assay type: tissue-based, Sus scrofa
[18] = system: PC-3; assay: Induction of apoptosis in human PC-3 cells assessed as early apoptotic cells at 100 nM measured after 24 hrs by annexin V-FITC and PI staining based flow cytometry analysis (reference value: 1.03%); assay type: functional
[19] = biological target: Tubulin beta (Homo sapiens) (UniProt P68371+Q9H4B7+Q13509+P04350+Q3ZCM7+P07437+Q13885+Q9BVA1+Q9BUF5+A6NNZ2); assay: Binding affinity to beta-tubulin colchicine binding site in human PC-3 cells assessed as inhibition of EBI-beta-tubulin adduct band formation preincubated for 2 hrs followed by EBI addition measured after 1.5 hrs by EBI competition based Western blotting analysis; assay type: cell-based; settings: dose 1-100 µM, time 3.5 hrs
[20] = system: PC-3; assay: Induction of apoptosis in human PC-3 cells assessed as early apoptotic cells at 50 nM measured after 24 hrs by annexin V-FITC and PI staining based flow cytometry analysis (reference value: 1.03%); assay type: functional
[21] = system: PC-3; assay: Induction of cell cycle arrest in human PC-3 cells assessed as reduction in CDC2 phosphorylation at Thr161 residue at 50 to 200 nM incubated for 24 hrs by DAPI staining based analysis; assay type: functional; settings: dose 50-200 nM
[22] = system: PC-3; assay: Induction of apoptosis in human PC-3 cells measured after 24 hrs by annexin V-FITC and PI staining based flow cytometry analysis; assay type: functional, cell-based; settings: dose 50-200 nM
[23] = system: PC-3; assay: Induction of apoptosis in human PC-3 cells assessed as increase in Cl-PARP level at 50 to 200 nM incubated for 24 hrs by Western blot analysis; assay type: functional, cell-based; settings: dose 50-200 nM
[24] = system: PC-3; assay: Induction of intracellular ROS generation in human PC-3 cells incubated for 24 hrs by DCFH-DA staining based confocal microscopy based analysis; assay type: functional, cell-based; settings: dose 50-200 nM
[25] = Toxicity in ICR mouse assessed as effect on CK level at 10 mg/kg, ip measured for 14 days; assay type: organism-based; settings: in vivo, 336 h, time 14 day
[26] = system: PC-3; assay: Induction of apoptosis in human PC-3 cells assessed as viable cells at 200 nM measured after 24 hrs by annexin V-FITC and PI staining based flow cytometry analysis (reference value: 90.6%); assay type: functional; settings: read-out: Activity
[27] = system: PC-3; assay: Induction of cell cycle arrest in human PC-3 cells assessed as accumulation of cells at S phase at 50 nM incubated for 24 hrs by flow cytometry analysis (reference value: 31.3%); assay type: functional
[28] = system: RM1; assay: Antitumor immunity against mouse RM1 cells homografted in C57BL/6 mouse model assessed as increase in tumor infiltrating helper T lymphocytes in spleen at 5 to 10 mg/kg, iv administered every two days for 14 days by flow cytometry analysis; assay type: functional, organism-based; settings: dose 5-10 mg/kg, time 14.0 day
[29] = system: PC-3; assay: Inhibition of V-ATPase activity in lysosomes of human PC-3 cells assessed as decrease in fluorescence at 50 to 200 nM incubated for 24 hrs by acridine orange staining based inverted fluorescent microscopic analysis; assay type: subcellular; settings: Lysosome, dose 50-200 nM
[30] = system: PC-3; assay: Inhibition of V-ATPase activity in human PC-3 cells measured after 24 hrs by colorimetric assay; assay type: cell-based; settings: dose 50-800 nM
[31] = system: PC-3; assay: Induction of cell cycle arrest in human PC-3 cells assessed as accumulation of cells at G1 phase at 100 nM incubated for 24 hrs by flow cytometry analysis (reference value: 49.4%); assay type: functional
[32] = system: PC-3; assay: Induction of apoptosis in human PC-3 cells assessed as necrotic cells at 200 nM measured after 24 hrs by annexin V-FITC and PI staining based flow cytometry analysis (reference value: 6.01%); assay type: functional
[33] = Toxicity in ICR mouse assessed as effect on CRE level at 10 mg/kg, ip measured for 14 days; assay type: organism-based; settings: in vivo, 336 h, time 14 day
[34] = system: PC-3; assay: Inhibition of autophagy in human PC-3 cells assessed as decrease in colocalization region at 50 to 200 uM measured after 3 hrs by immunofluorescence imaging based analysis; assay type: functional, cell-based; settings: dose 50-200 µM
[35] = system: PC-3; assay: Induction of immunogenic cell death in human PC-3 cells assessed as decrease in HMGB1 content in tumor cells at 50 to 200 nM; assay type: functional, cell-based; settings: dose 50-200 nM

SMILES: COc1cc(-c2nc(C(N)=O)cc3cc4c(cc23)OCCO4)cc(Br)c1OC
- Activity [1]: Active
- Activity [2]: Active
- Activity [3]: Dose-Dependent Effect
- Activity [4]: 3.51%
- inhibition [5]: Active
- Activity [6]: Non-Toxic
- inhibition in vivo at 10 mg/kg [7]: 70.2%
- inhibition [8]: Active
- Activity [9]: Non-Toxic
- inhibition [10]: 15.8%
- Activity [11]: 10.3%
- Activity [12]: 6.91%
- Activity [13]: Active
- IC50 [14]: 0.09 µM
- Activity [15]: Active
- inhibition [16]: 77.4%
- Kd [17]: 6.56 µM
- Activity [18]: 21.6%
- Activity [19]: Dose-Dependent Effect
- Activity [20]: 1.93%
- Activity [21]: Active
- Activity [22]: Dose-Dependent Effect
- Activity [23]: Active
- Activity [24]: Dose-Dependent Effect
- Activity [25]: Non-Toxic
- viability at 0.2 µM [26]: 50.9%
- Activity [27]: 29.3%
- Activity [28]: Active
- inhibition [29]: Active
- inhibition [30]: Dose-Dependent Effect
- Activity [31]: 34.1%
- Activity [32]: 6.91%
- Activity [33]: Non-Toxic
- inhibition [34]: Active
- Activity [35]: Active
